Assay results taken from US20100267561A1, “HERBICIDAL PYRIDAZINONE DERIVATIVES” (priority 2007, published 2010).

Experiments:
Type in all cases: in vivo
canola (Brassica rapa) = experiment: Test C pre-/postemergence plant response
Outline: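 Greenhouse-type test under controlled conditions: soil-surface preemergence treatment of sown seed and foliar postemergence treatment of seedlings 2–18 cm tall. Each compound was in non-phytotoxic solvent with surfactant. Response was rated by eye after 15–25 days, 0 to 100, against controls.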

[1] = tested on: itchgrass (Rottboellia cochinchinensis); experiment: Test E pre-/postemergence plant response; settings: scale 0 to 100
Outline: (§1)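 In this greenhouse assay, sown seeds received preemergence treatment and young plants of 2 to 18 cm (1- to 4-leaf stage) received postemergence treatment, both with compound in a non-phytotoxic solvent and surfactant vehicle. Effects were rated visually 14 to 21 days later on a 0–100 control scale.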

[2] = tested on: barnyardgrass (Echinochloa crus-galli); experiment: Test E pre-/postemergence plant response
Outline: as §1

[3] = tested on: surinam grass (Brachiaria decumbens); experiment: Test E pre-/postemergence plant response; settings: scale 0 to 100
Outline: as §1

[4] = tested on: broadleaf signalgrass (Brachiaria platyphylla); experiment: Test E pre-/postemergence plant response; settings: scale 0 to 100
Outline: as §1

[5] = tested on: common groundsel (Senecio vulgaris); experiment: Test E pre-/postemergence plant response; settings: scale 0 to 100
Outline: as §1

[6] = tested on: annual bluegrass (Poa annua); experiment: Test E pre-/postemergence plant response; settings: scale 0 to 100
Outline: as §1

[7] = tested on: pitted morningglory (Ipomoea lacunosa); experiment: Test E pre-/postemergence plant response; settings: scale 0 to 100
Outline: as §1

[8] = tested on: common mallow (Malva sylvestris); experiment: Test E pre-/postemergence plant response; settings: scale 0 to 100
Outline: as §1

[9] = tested on: naked crabgrass (Digitaria nuda); experiment: Test E pre-/postemergence plant response; settings: scale 0 to 100
Outline: as §1

[10] = tested on: quackgrass (Elytrigia repens); experiment: Test E pre-/postemergence plant response; settings: scale 0 to 100
Outline: as §1

[11] = tested on: guineagrass (Panicum maximum); experiment: Test E pre-/postemergence plant response; settings: scale 0 to 100
Outline: as §1

CCc1cc(-c2ccc(C(F)(F)F)cc2)nn1-c1c(OS(C)(=O)=O)cnn(C)c1=O [Compound 19]
40: Plant response rating, Signalgrass ([4]; Preemergence, 4 g ai/ha) | Plant response rating, Crabgrass, Naked ([9]; 4 g ai/ha, Postemergence)
100: Plant response rating, Barnyardgrass ([2]; 31 g ai/ha, Preemergence, scale 0 to 100) | Plant response rating, Barnyardgrass ([2]; Postemergence, 16 g ai/ha, scale 0 to 100) | Plant response rating, Barnyardgrass ([2]; Postemergence, 31 g ai/ha, scale 0 to 100) | Plant response rating, Surinam Grass ([3]; 16 g ai/ha, Preemergence) | Plant response rating, Surinam Grass ([3]; 31 g ai/ha, Preemergence) | Plant response rating, Surinam Grass ([3]; Postemergence, 31 g ai/ha) | Plant response rating, Guineagrass ([11]; 16 g ai/ha, Preemergence) | Plant response rating, Guineagrass ([11]; 31 g ai/ha, Preemergence)
65: Plant response rating, Itchgrass ([1]; 16 g ai/ha, Preemergence) | Plant response rating, Signalgrass ([4]; 4 g ai/ha, Postemergence) | Plant response rating, Quackgrass ([10]; 16 g ai/ha, Preemergence)
15: Plant response rating, Quackgrass ([10]; Postemergence, 8 g ai/ha)
85: Plant response rating, Crabgrass, Naked ([9]; Postemergence, 8 g ai/ha)
98: Plant response rating, Barnyardgrass ([2]; Postemergence, 8 g ai/ha, scale 0 to 100) | Plant response rating, Signalgrass ([4]; Postemergence, 16 g ai/ha) | Plant response rating, Signalgrass ([4]; Postemergence, 31 g ai/ha) | Plant response rating, Crabgrass, Naked ([9]; 8 g ai/ha, Preemergence) | Plant response rating, Crabgrass, Naked ([9]; 31 g ai/ha, Preemergence) | Plant response rating, Crabgrass, Naked ([9]; Postemergence, 31 g ai/ha) | Plant response rating, Guineagrass ([11]; Postemergence, 31 g ai/ha)
0: Plant response rating, Canola (canola (Brassica rapa); Postemergence, 8 g ai/ha, scale 0 to 100, 0 no effect, 100 complete control) | Plant response rating, Canola (canola (Brassica rapa); Postemergence, 16 g ai/ha, scale 0 to 100, 0 no effect, 100 complete control) | Plant response rating, Canola (canola (Brassica rapa); Postemergence, 31 g ai/ha, scale 0 to 100, 0 no effect, 100 complete control) | Plant response rating, Canola (canola (Brassica rapa); Postemergence, 62 g ai/ha, scale 0 to 100, 0 no effect, 100 complete control) | Plant response rating, Canola (canola (Brassica rapa); Preemergence, 8 g ai/ha, scale 0 to 100 (0 no effect, 100 complete control)) | Plant response rating, Canola (canola (Brassica rapa); Preemergence, 16 g ai/ha, scale 0 to 100 (0 no effect, 100 complete control)) | Plant response rating, Canola (canola (Brassica rapa); Preemergence, 31 g ai/ha, scale 0 to 100 (0 no effect, 100 complete control)) | Plant response rating, Canola (canola (Brassica rapa); Preemergence, 62 g ai/ha, scale 0 to 100, 0 no effect, 100 complete control) | Plant response rating, Itchgrass ([1]; 4 g ai/ha, Postemergence) | Plant response rating, Barnyardgrass ([2]; Preemergence, 4 g ai/ha, scale 0 to 100, 0 no effect, 100 complete control) | Plant response rating, Groundsel ([5]; 4 g ai/ha, Postemergence) | Plant response rating, Groundsel ([5]; 16 g ai/ha, Preemergence) | Plant response rating, Groundsel ([5]; 31 g ai/ha, Preemergence) | Plant response rating, Groundsel ([5]; Postemergence, 8 g ai/ha) | Plant response rating, Groundsel ([5]; Postemergence, 16 g ai/ha) | Plant response rating, Groundsel ([5]; Postemergence, 31 g ai/ha) | Plant response rating, Groundsel ([5]; Preemergence, 4 g ai/ha) | Plant response rating, Bluegrass ([6]; 4 g ai/ha, Postemergence) | Plant response rating, Bluegrass ([6]; 8 g ai/ha, Preemergence) | Plant response rating, Bluegrass ([6]; 16 g ai/ha, Preemergence) | Plant response rating, Bluegrass ([6]; 31 g ai/ha, Preemergence) | Plant response rating, Bluegrass ([6]; Postemergence, 8 g ai/ha) | Plant response rating, Bluegrass ([6]; Postemergence, 16 g ai/ha) | Plant response rating, Bluegrass ([6]; Postemergence, 31 g ai/ha) | Plant response rating, Bluegrass ([6]; Preemergence, 4 g ai/ha) | Plant response rating, Morningglory ([7]; 4 g ai/ha, Postemergence) | Plant response rating, Morningglory ([7]; 16 g ai/ha, Preemergence) | Plant response rating, Morningglory ([7]; 31 g ai/ha, Preemergence) | Plant response rating, Morningglory ([7]; Postemergence, 8 g ai/ha) | Plant response rating, Morningglory ([7]; Postemergence, 16 g ai/ha) | Plant response rating, Morningglory ([7]; Postemergence, 31 g ai/ha) | Plant response rating, Morningglory ([7]; Preemergence, 4 g ai/ha) | Plant response rating, Mallow ([8]; 4 g ai/ha, Postemergence) | Plant response rating, Mallow ([8]; 16 g ai/ha, Preemergence) | Plant response rating, Mallow ([8]; 31 g ai/ha, Preemergence) | Plant response rating, Mallow ([8]; Postemergence, 8 g ai/ha) | Plant response rating, Mallow ([8]; Postemergence, 16 g ai/ha) | Plant response rating, Mallow ([8]; Postemergence, 31 g ai/ha) | Plant response rating, Quackgrass ([10]; 4 g ai/ha, Postemergence) | Plant response rating, Quackgrass ([10]; Preemergence, 4 g ai/ha)
20: Plant response rating, Itchgrass ([1]; Postemergence, 8 g ai/ha)
10: Plant response rating, Itchgrass ([1]; Preemergence, 4 g ai/ha)
90: Plant response rating, Barnyardgrass ([2]; 4 g ai/ha, Postemergence, scale 0 to 100) | Plant response rating, Crabgrass, Naked ([9]; Postemergence, 16 g ai/ha) | Plant response rating, Guineagrass ([11]; Postemergence, 8 g ai/ha)
75: Plant response rating, Barnyardgrass ([2]; 8 g ai/ha, Preemergence, scale 0 to 100) | Plant response rating, Quackgrass ([10]; Postemergence, 16 g ai/ha)
95: Plant response rating, Barnyardgrass ([2]; 16 g ai/ha, Preemergence, scale 0 to 100) | Plant response rating, Surinam Grass ([3]; Postemergence, 16 g ai/ha) | Plant response rating, Guineagrass ([11]; Postemergence, 16 g ai/ha)
70: Plant response rating, Itchgrass ([1]; Postemergence, 16 g ai/ha) | Plant response rating, Surinam Grass ([3]; Postemergence, 8 g ai/ha)
35: Plant response rating, Surinam Grass ([3]; 4 g ai/ha, Postemergence) | Plant response rating, Crabgrass, Naked ([9]; Preemergence, 4 g ai/ha)
50: Plant response rating, Surinam Grass ([3]; Preemergence, 4 g ai/ha)
80: Plant response rating, Itchgrass ([1]; 31 g ai/ha, Preemergence) | Plant response rating, Itchgrass ([1]; Postemergence, 31 g ai/ha) | Plant response rating, Signalgrass ([4]; 16 g ai/ha, Preemergence) | Plant response rating, Signalgrass ([4]; 31 g ai/ha, Preemergence) | Plant response rating, Signalgrass ([4]; Postemergence, 8 g ai/ha) | Plant response rating, Quackgrass ([10]; 31 g ai/ha, Preemergence) | Plant response rating, Quackgrass ([10]; Postemergence, 31 g ai/ha) | Plant response rating, Guineagrass ([11]; 4 g ai/ha, Postemergence)
60: Plant response rating, Guineagrass ([11]; Preemergence, 4 g ai/ha)
